Assay results: publication PMC10056636, “3-Amino-Substituted Analogues of Fusidic Acid as Membrane-Active Antibacterial Compounds” (Membranes, 2023)
≈ marks a conversion by molar mass, not a printed value. Read-outs that look alike come from different tables or passages of the source.

Tests used:
[1] = tested on: Staphylococcus aureus (ATCC 43300) (MRSA); test: Antibacterial whole-cell growth inhibition (MIC, CO-ADD); type: cell-based; conditions: for primary screening: antimicrobial activity: S. aureus (MRSA), primary screen at 32 μg/mL
Experimental: (§1) Antibacterial screening was carried out by the serial dilution method. All bacteria were cultured in the cation-adjusted Mueller Hinton broth (CAMHB) at 37 °C overnight. A sample of each culture was then diluted 40-fold in fresh broth and incubated at 37 °C for 1.5–3 h. The resultant mid-log phase cultures were diluted (CFU/mL measured by OD600) and then added into each well containing a test compound, giving a cell density of 5 × 10^5 CFU/mL and a total volume of 50 µL. All the plates were covered and incubated at 37 °C for 18 h without shaking.
(§2) Inhibition of bacterial growth was determined by measuring the absorbance at 600 nm (OD600) with a Tecan M1000 Pro monochromator plate reader. […]

in vitro = type: cell-based, human; conditions: human, CC50
Experimental: (§3) HEK293 cells were counted manually in a Neubauer hemocytometer and then plated in 384-well plates containing the test compounds to give a density of 5000 cells per well in a final volume of 50 µL. DMEM supplemented with 10% FBS was used as the growth medium, and the cells were incubated together with the compounds for 20 h at 37 °C in 5% CO2.
(§4) The cytotoxicity (or cell viability) was measured by fluorescence, ex: 560/10 nm, em: 590/10 nm (F560/590), after addition of 5 µL of 25 µg/mL resazurin (2.3 µg/mL final concentration) and after incubation for further 3 h at 37 °C in 5% CO2. The fluorescence intensity was measured using a Tecan M1000 Pro monochromator plate reader with automatic gain control. The CC50 (50% cytotoxicity concentration) values were calculated by curve fitting of inhibition vs. log(concentration) using a sigmoidal dose–response function, with variable fitting values for bottom, top, and slope. In addition, the maximal percentage of cytotoxicity is reported as DMax, indicating any compounds with partial cytotoxicity. The curve fitting was implemented using Pipeline Pilot’s dose–response component. The results were similar to those obtained by other curve-fitting tools, such as GraphPad’s Prism and IDBS’s XlFit. Any value with > indicated samples with no activity (low DMax value) or samples with CC50 values above the maximum tested concentration (higher DMax value).
(§5) In addition, samples were flagged as partially cytotoxic if DMax ≥ 50%, even for CC50 > the maximum tested concentration.
(§6) Tamoxifen served as a positive cytotoxicity standard. Melittin was used as a positive hemolytic standard.

[2] = tested on: human embryonic kidney cell line HEK293 (ATCC CRL-1573); test: in vitro; type: cell-based; conditions: for CC50: human, 20 h
Experimental: as §3, §4, §5, §6

Hemolysis assay = type: cell-based, human; conditions: for hemolysis at 1 h: human, Dmax (maximal percentage of hemolysis)
Experimental: (§7) Human whole blood was washed three times with 3 volumes of 0.9% NaCl and then resuspended in the same medium to a concentration of 0.5 × 10^8 cells/mL, as determined by manual cell count in a Neubauer hemocytometer. The washed cells were then added to 384-well plates containing the test compounds to a final volume of 50 µL. After shaking on a plate shaker for 10 min, the plates were incubated for 1 h at 37 °C. After incubation, the plates were centrifuged at 1000× g for 10 min to pellet the cells and debris; 25 µL of the supernatant was then transferred to a polystyrene 384-well assay plate.
(§8) Hemolysis was monitored by measuring the supernatant absorbance at […] (OD405). The absorbance was measured using a Tecan M1000 Pro monochromator plate reader. HC10 and HC50 (10% and 50% hemolysis concentrations, respectively) were calculated by curve fitting of inhibition vs. log(concentration) using a sigmoidal dose–response function with variable fitting values for top, bottom, and slope. In addition, the maximal percentage of hemolysis is reported as DMax, indicating any compounds with partial hemolysis. The curve fitting was implemented using Pipeline Pilot’s dose–response component. […] Any value with > indicated sample with no activity (low DMax value) or samples with HC10 values above the maximum tested concentration (higher DMax value).
(§9) In addition, samples were flagged as partially hemolytic if DMax ≥ 50%, even for HC10 > the maximum tested concentration. […]

human red blood cells = test: Hemolysis assay; type: cell-based; conditions: human, 1 h
Experimental: as §7, §8, §9

[3] = tested on: Cryptococcus neoformans (ATCC 208821); test: Antifungal growth inhibition (MIC, CO-ADD); conditions: for MIC: inhibition ≥70%, two replicates per cell; for primary screening: growth inhibition: primary screen at 32 μg/mL
Experimental: Antimicrobial, cytotoxicity, and hemolytic activity screening of the synthesized derivatives was carried out in the CO-ADD (The Community for Antimicrobial Drug Discovery) (http://www.co-add.org, accessed on 24 November 2020) and included analysis for antibacterial properties, cytotoxicity, and hemolytic activity.
The hit confirmation test included five bacteria, Escherichia coli (ATCC 25922), Klebsiella pneumoniae (ATCC 700603), Acinetobacter baumannii (ATCC 19606), Pseudomonas aeruginosa (ATCC 27853), and Staphylococcus aureus (ATCC 43300), and two fungi, Candida albicans (ATCC 90028) and Cryptococcus neoformans (ATCC 208821). […] The compounds were also screened for hemolysis of human red blood cells (human whole blood, strain ARCBS 5400 00150).
Samples were prepared in DMSO and water to a final testing concentration of 32 µg/mL or 20 µM (unless otherwise indicated in the data sheet) and serially diluted twofold up to 8 times. Each sample concentration was prepared in 384-well plates: non-binding surface plate (NBS; Corning 3640) for each bacterial/fungal strain, tissue-culture treated (TC-treated; Corning 3712/3764) black for mammalian cell types and polypropylene 384-well plates (PP; Corning 3657) for hemolysis assays. The final DMSO concentration was maintained to a maximum of 0.5%. All sample preparation procedures were performed using liquid-handling robots. All screening was performed as two replica (n = 2), with both replicas on different assay plates, but from single plating and performed in a single screening experiment (microbial incubation). In addition, two values are used as quality controls for individual plates: Z′-Factor [1 − (3* (sd(NegCtrl) + sd(PosCtrl))/(average(PosCtrl)-average(NegCtrl)))] and standard antibiotic controls at different concentrations (>MIC and <MIC).
Fungi strains were cultured for 3 days on yeast extract-peptone dextrose (YPD) agar at 30 °C. A yeast suspension of 1 × 10^6 to 5 × 10^6 CFU/mL (as determined by OD530) was prepared from five colonies. The suspension was subsequently diluted and added to each well containing a test compound, giving a final cell density of fungi suspension of 2.5 × 10^3 CFU/mL and a total volume of 50 µL. All plates were covered and incubated at 35 °C for 36 h without shaking.
The absorbance was measured using a Biotek Multiflo Synergy HTX plate reader. In both cases, the percentage of growth inhibition was calculated for each well, using the negative control (media only) and positive control (fungi without inhibitors) in the same plate. […] In addition, the maximal percentage of growth inhibition is reported as DMax, indicating any compounds with marginal activity.
Fluconazole was used as a positive fungal inhibitor standard for C. albicans and C. neoformans. […] The quality control (QC) of the assays was performed using Z′-factors calculated from the negative (media only) and positive controls (bacterial, fungal, or cell culture without inhibitor) and the standards.

[4] = tested on: Acinetobacter baumannii (ATCC 19606); test: Antibacterial whole-cell growth inhibition (MIC, CO-ADD); type: cell-based; conditions: A. baumannii, two replicates per cell
Experimental: as §1, §2

[5] = tested on: Escherichia coli (ATCC 25922); test: as above; type: cell-based; conditions: E. coli, two replicates per cell
Experimental: as §1, §2

[6] = tested on: Pseudomonas aeruginosa (ATCC 27853); test: as above; type: cell-based; conditions: P. aeruginosa, two replicates per cell
Experimental: as §1, §2

[7] = tested on: Candida albicans (ATCC 90028); test: Antifungal growth inhibition (MIC, CO-ADD); type: cell-based
[8] = S. aureus (MRSA) ATCC 43300, inhibition ≥80%, two replicates (n = 2)
[9] = Staphylococcus aureus, S. aureus (MRSA) ATCC 43300, inhibition ≥80%, two replicates (n = 2), read-out: MIC
[10] = Cryptococcus neoformans, ATCC208821, C. neoformans
[11] = Acinetobacter baumannii, ATCC19606, read-out: MIC
[12] = Escherichia coli, ATCC25922, read-out: MIC
[13] = Pseudomonas aeruginosa, ATCC27853, read-out: MIC
[14] = C. albicans, inhibition ≥80%, two replicates per cell
[15] = Candida albicans, ATCC90028, C. albicans, inhibition ≥80%, two replicates per cell, read-out: MIC

Compound	MIC [1, 8]	primary screening: antimicrobial activity [1]	MIC [1, 9]	CC50 at 20 h (in vitro)	CC50 [2]	hemolysis at 1 h (Hemolysis assay)	Dmax (maximal percentage of hemolysis) (human red blood cells)	HC50 (human red blood cells)	further results
COC(=O)/C(CCC=C(C)C)=C1\[C@@H](OC(C)=O)C[C@@]2(C)[C@H]1C[C@@H](O)[C@H]1[C@@]3(C)CC[C@H](NCCN)[C@@H](C)[C@@H]3CC[C@@]12C [Compound 12]	32 µg/mL (≈ 55.9 µM)	showed antimicrobial activity	32 µg/mL (≈ 55.9 µM)	7.77 µg/mL (≈ 13.6 µM)	13.2 µg/mL (≈ 23 µM)	34.8%	27.8%	>32 >32 µg/mL	MIC ([3]; C. neoformans): 16 µg/mL (≈ 27.9 µM); primary screening: growth inhibition ([3]; C. neoformans): inhibited the growth; MIC [3, 10]: 16 µg/mL (≈ 27.9 µM)
CC(=O)O[C@H]1C[C@@]2(C)[C@@H](CC(=O)[C@H]3[C@@]4(C)CC[C@H](N5CCCC5)[C@@H](C)[C@@H]4CC[C@@]32C)/C1=C(\CCC=C(C)C)C(=O)O [Compound 7]	–	showed antimicrobial activity	8 µg/mL (≈ 14.1 µM)	> 32 µg/mL	>32 >32 µg/mL	2.3%	2.6%	>32 >32 µg/mL	–
CC(=O)O[C@H]1C[C@@]2(C)[C@@H](C[C@@H](O)[C@H]3[C@@]4(C)CC[C@H](NCCCNCCCCNCCCN)[C@@H](C)[C@@H]4CC[C@@]32C)/C1=C(\CCC=C(C)C)C(=O)O [Compound 21]	–	–	2 to 8 µg/mL (≈ 2.85 to 11.4 µM)	24.2 µg/mL (≈ 34.5 µM)	> 32 µg/mL	8.7%	6.4%	>32 >32 µg/mL	MIC [4]: 32 µg/mL (≈ 45.6 µM); MIC [4, 11]: 32 µg/mL (≈ 45.6 µM); MIC [5]: 32 µg/mL (≈ 45.6 µM); MIC [5, 12]: 32 µg/mL (≈ 45.6 µM); MIC [6]: 32 µg/mL (≈ 45.6 µM); MIC [6, 13]: 32 µg/mL (≈ 45.6 µM); MIC [7, 14]: 32 µg/mL (≈ 45.6 µM); MIC [7, 15]: 32 µg/mL (≈ 45.6 µM)
OC(Cn1cncn1)(Cn1cncn1)c1ccc(F)cc1F [Fluconazole, reference compound]	–	–	–	–	–	–	–	–	MIC ([7]; Candida albicans, ATCC90028): 0.125 µg/mL (≈ 0.408 µM); MIC [3, 10]: 8 µg/mL (≈ 26.1 µM)
CN[C@H](CC(C)C)C(=O)N[C@H]1C(=O)N[C@@H](CC(N)=O)C(=O)N[C@H]2C(=O)N[C@H]3C(=O)N[C@H](C(=O)N[C@H](C(=O)O)c4cc(O)cc(O)c4-c4cc3ccc4O)[C@H](O)c3ccc(c(Cl)c3)Oc3cc2cc(c3O[C@@H]2O[C@H](CO)[C@@H](O)[C@H](O)[C@H]2O[C@H]2C[C@](C)(N)[C@H](O)[C@H](C)O2)Oc2ccc(cc2Cl)[C@H]1O [Vancomycin, reference compound]	–	–	–	–	–	–	–	–	MIC ([1]; Staphylococcus aureus): 1 µg/mL (≈ 0.69 µM)
CC/C(=C(\c1ccccc1)c1ccc(OCCN(C)C)cc1)c1ccccc1 [Tamoxifen, reference compound]	–	–	–	9 µg/mL (≈ 24.2 µM)	–	–	–	–	Dmax (maximal percentage of cytotoxicity) [2]: 50%
CC(=O)O[C@H]1C[C@@]2(C)[C@@H](C[C@@H](O)[C@H]3[C@@]4(C)CC[C@H](NCCCNCCCCN)[C@@H](C)[C@@H]4CC[C@@]32C)/C1=C(\CCC=C(C)C)C(=O)O [Compound 19]	32 µg/mL (≈ 49.7 µM)	–	–	> 32 µg/mL	>32 >32 µg/mL	5.5%	5.3%	>32 >32 µg/mL	MIC [4]: >32 >32 µg/mL; MIC [4, 11]: > 32 µg/mL; MIC [5]: >32 >32 µg/mL; MIC [5, 12]: > 32 µg/mL; MIC [6]: >32 >32 µg/mL; MIC [6, 13]: > 32 µg/mL; MIC [7, 14]: >32 >32 µg/mL; MIC [7, 15]: > 32 µg/mL
CC[C@H](C)[C@H](NC(=O)CN)C(=O)NCC(=O)N[C@@H](C)C(=O)N[C@H](C(=O)N[C@@H](CC(C)C)C(=O)N[C@@H](CCCCN)C(=O)N[C@H](C(=O)N[C@@H](CC(C)C)C(=O)N[C@H](C(=O)N[C@H](C(=O)NCC(=O)N[C@@H](CC(C)C)C(=O)N1CCC[C@H]1C(=O)N[C@@H](C)C(=O)N[C@@H](CC(C)C)C(=O)N[C@H](C(=O)N[C@@H](CO)C(=O)N[C@@H](Cc1c[nH]c2ccccc12)C(=O)N[C@H](C(=O)N[C@@H](CCCCN)C(=O)N[C@@H](CCCNC(=N)N)C(=O)N[C@@H](CCCCN)C(=O)N[C@@H](CCCNC(=N)N)C(=O)N[C@@H](CCC(N)=O)C(=O)N[C@@H](CCC(N)=O)C(N)=O)[C@@H](C)CC)[C@@H](C)CC)[C@@H](C)O)[C@@H](C)O)C(C)C)C(C)C [Melittin, reference compound]	–	–	–	–	–	–	–	–	hemolysis (Hemolysis assay; human erythrocytes, two replicates per cell, read-out: Dmax (maximal percentage of hemolysis)): 50%
Colistin [reference compound]	–	–	–	–	–	–	–	–	MIC [4]: 0.25 µg/mL; MIC [5]: 0.125 µg/mL; MIC [6]: 0.25 µg/mL
COC(=O)/C(CCC=C(C)C)=C1\[C@@H](OC(C)=O)C[C@@]2(C)[C@H]1C[C@@H](O)[C@H]1[C@@]3(C)CC[C@H](NCc4ccccc4)[C@@H](C)[C@@H]3CC[C@@]12C [Compound 18]	16 µg/mL (≈ 25.8 µM)	showed antimicrobial activity	16 µg/mL (≈ 25.8 µM)	17.8 µg/mL (≈ 28.7 µM)	17.5 µg/mL (≈ 28.2 µM)	–	–	>32 >32 µg/mL	MIC ([3]; C. neoformans): 32 µg/mL (≈ 51.6 µM); primary screening: growth inhibition ([3]; C. neoformans): inhibited the growth; MIC [3, 10]: 32 µg/mL (≈ 51.6 µM)
CC(=O)O[C@H]1C[C@@]2(C)[C@@H](CC(=O)[C@H]3[C@@]4(C)CC[C@H](NCc5ccccc5)[C@@H](C)[C@@H]4CC[C@@]32C)/C1=C(\CCC=C(C)C)C(=O)O [Compound 9]	–	showed antimicrobial activity	8 µg/mL (≈ 13.2 µM)	> 32 µg/mL	>32 >32 µg/mL	3.7%	2.3%	>32 >32 µg/mL	–
CC(=O)O[C@H]1C[C@@]2(C)[C@@H](CC(=O)[C@H]3[C@@]4(C)CCC(=O)[C@@H](C)[C@@H]4CC[C@@]32C)/C1=C(\CCC=C(C)C)C(=O)O [Compound 1]	–	showed antimicrobial activity	8 µg/mL (≈ 15.6 µM)	> 32 µg/mL	>32 >32 µg/mL	7.3%	10.6%	>32 >32 µg/mL	–
CCCCN[C@H]1CC[C@@]2(C)[C@@H](CC[C@@]3(C)[C@H]2[C@H](O)C[C@H]2/C(=C(\CCC=C(C)C)C(=O)OC)[C@@H](OC(C)=O)C[C@@]23C)[C@@H]1C [Compound 14]	32 µg/mL (≈ 54.6 µM)	showed antimicrobial activity	32 µg/mL (≈ 54.6 µM)	26 µg/mL (≈ 44.4 µM)	23.8 µg/mL (≈ 40.6 µM)	3.4%	3.6%	>32 >32 µg/mL	–
